Laboratory results taken from the supplement of paper PMC10307832.

What was measured:
Test in all cases: relative viability (nuclei count vs DMSO), 5 days (fraction); higher = more cells survive
NCI-H522 = tested on: NCI-H522
How it was run: (§1)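 Lung cancer cell lines were pin-tool dosed in 1536-well plates on the day after seeding, with either a lone drug or a fixed anchor-drug dose plus five library-drug doses (not always all listed) in √10 steps. Nuclei were counted on 4× images after 5 days. Relative viability is the ratio of treated-well to vehicle-well nuclei counts, with each value a median of duplicate plates.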

NCI-H520 = tested on: NCI-H520
How it was run: as §1

NCI-H1355 = tested on: NCI-H1355
How it was run: as §1

NCI-H1648 = tested on: NCI-H1648
How it was run: as §1

LCLC-103H = tested on: LCLC-103H
How it was run: as §1

IA-LM = tested on: IA-LM
How it was run: as §1

`CC1(C)CCC(c2ccc(Cl)cc2)=C(CN2CCN(c3ccc(C(=O)NS(=O)(=O)c4ccc(N[C@H](CCN5CCOCC5)CSc5ccccc5)c(S(=O)(=O)C(F)(F)F)c4)cc3)CC2)C1` [Navitoclax] + CC(=O)Nc1cccc(-n2c(=O)n(C3CC3)c(=O)c3c(Nc4ccc(I)cc4F)n(C)c(=O)c(C)c32)c1 [Trametinib] (partner 0.02 µM) showed a relative viability (NCI-H522; first compound 0.005 µM) of 0.753, a relative viability (NCI-H522; first compound 0.01581 µM) of 0.782 and a relative viability (NCI-H522; first compound 0.05 µM) of 0.778. It also gave a relative viability (NCI-H522; first compound 0.1581 µM) of 0.627, a relative viability (NCI-H522; first compound 0.5 µM) of 0.725 and a relative viability (NCI-H520; first compound 0.005 µM) of 0.673. It also gave a relative viability (NCI-H520; first compound 0.01581 µM) of 0.653, a relative viability (NCI-H520; first compound 0.05 µM) of 0.631 and a relative viability (NCI-H520; first compound 0.1581 µM) of 0.603. It also gave a relative viability (NCI-H520; first compound 0.5 µM) of 0.693, a relative viability (NCI-H1355; first compound 0.005 µM) of 0.446 and a relative viability (NCI-H1355; first compound 0.01581 µM) of 0.468. For the same compound, the relative viability (NCI-H1355; first compound 0.05 µM) was 0.408, the relative viability (NCI-H1355; first compound 0.1581 µM) was 0.431 and the relative viability (NCI-H1355; first compound 0.5 µM) was 0.458. It also gave a relative viability (NCI-H1648; first compound 0.005 µM) of 0.541, a relative viability (NCI-H1648; first compound 0.01581 µM) of 0.427 and a relative viability (NCI-H1648; first compound 0.1581 µM) of 0.453. The relative viability (NCI-H1648; first compound 0.5 µM) was 0.402, the relative viability (LCLC-103H; first compound 0.005 µM) was 0.637 and the relative viability (LCLC-103H; first compound 0.01581 µM) was 0.731. For the same compound, the relative viability (LCLC-103H; first compound 0.05 µM) was 0.704, the relative viability (LCLC-103H; first compound 0.1581 µM) was 0.691 and the relative viability (LCLC-103H; first compound 0.5 µM) was 0.685.
`O=C(O)c1ccc(-c2c[nH]c3ncc(-c4ccccc4)cc23)cc1C1CCCC1` + O=C(CCCCCCC(=O)Nc1ccccc1)NO [Vorinostat] (partner 1 µM) was tested, and the relative viability (NCI-H522; first compound 0.04 µM) was 0.932, the relative viability (NCI-H522; first compound 0.1265 µM) was 0.984 and the relative viability (NCI-H522; first compound 0.4 µM) was 0.843. The relative viability (NCI-H522; first compound 1.265 µM) was 1.11, the relative viability (NCI-H520; first compound 0.04 µM) was 0.643 and the relative viability (NCI-H520; first compound 0.1265 µM) was 0.816. It also gave a relative viability (NCI-H520; first compound 0.4 µM) of 0.71, a relative viability (NCI-H520; first compound 1.265 µM) of 0.484 and a relative viability (NCI-H1355; first compound 0.04 µM) of 0.647. It also gave a relative viability (NCI-H1355; first compound 0.1265 µM) of 0.753, a relative viability (NCI-H1355; first compound 0.4 µM) of 0.694 and a relative viability (NCI-H1355; first compound 1.265 µM) of 0.615. It also gave a relative viability (NCI-H1648; first compound 0.04 µM) of 0.648, a relative viability (NCI-H1648; first compound 0.1265 µM) of 0.581 and a relative viability (NCI-H1648; first compound 0.4 µM) of 0.331. For the same compound, the relative viability (IA-LM; first compound 0.04 µM) was 0.976, the relative viability (IA-LM; first compound 0.1265 µM) was 1.07 and the relative viability (IA-LM; first compound 0.4 µM) was 1.13. For the same compound, the relative viability (IA-LM; first compound 1.265 µM) was 1.03, the relative viability (LCLC-103H; first compound 0.04 µM) was 0.777 and the relative viability (LCLC-103H; first compound 0.1265 µM) was 0.758. It also gave a relative viability (LCLC-103H; first compound 0.4 µM) of 0.779 and a relative viability (LCLC-103H; first compound 1.265 µM) of 0.76.
Work on `NC(=O)Nc1cc(-c2cccc(F)c2)sc1C(=O)N[C@H]1CCCNC1` [AZD7762] + O=C(CCCCCCC(=O)Nc1ccccc1)NO [Vorinostat] (partner 1 µM) yielded a relative viability (NCI-H522; first compound 0.01 µM) of 0.869, a relative viability (NCI-H522; first compound 0.03162 µM) of 0.923 and a relative viability (NCI-H522; first compound 0.1 µM) of 0.912. It also gave a relative viability (NCI-H522; first compound 0.3162 µM) of 0.624, a relative viability (NCI-H522; first compound 1 µM) of 0.783 and a relative viability (NCI-H520; first compound 0.01 µM) of 0.78. For the same compound, the relative viability (NCI-H520; first compound 0.03162 µM) was 0.825, the relative viability (NCI-H520; first compound 0.1 µM) was 0.635 and the relative viability (NCI-H520; first compound 0.3162 µM) was 0.375. The relative viability (NCI-H520; first compound 1 µM) was 0.187, the relative viability (NCI-H1355; first compound 0.01 µM) was 0.609 and the relative viability (NCI-H1355; first compound 0.03162 µM) was 0.629. The relative viability (NCI-H1355; first compound 0.1 µM) was 0.649, the relative viability (NCI-H1355; first compound 0.3162 µM) was 0.647 and the relative viability (NCI-H1355; first compound 1 µM) was 0.379. The relative viability (NCI-H1648; first compound 0.01 µM) was 0.735, the relative viability (NCI-H1648; first compound 0.03162 µM) was 0.488 and the relative viability (NCI-H1648; first compound 0.1 µM) was 0.45. For the same compound, the relative viability (NCI-H1648; first compound 0.3162 µM) was 0.472, the relative viability (NCI-H1648; first compound 1 µM) was 0.421 and the relative viability (IA-LM; first compound 0.01 µM) was 1.04. The relative viability (IA-LM; first compound 0.03162 µM) was 0.984, the relative viability (IA-LM; first compound 0.1 µM) was 1.04 and the relative viability (IA-LM; first compound 0.3162 µM) was 0.74. It also gave a relative viability (IA-LM; first compound 1 µM) of 1.17, a relative viability (LCLC-103H; first compound 0.01 µM) of 0.857 and a relative viability (LCLC-103H; first compound 0.03162 µM) of 0.776. The relative viability (LCLC-103H; first compound 0.1 µM) was 0.842, the relative viability (LCLC-103H; first compound 0.3162 µM) was 0.591 and the relative viability (LCLC-103H; first compound 1 µM) was 0.69.
`NC(=O)Nc1cc(-c2cccc(F)c2)sc1C(=O)N[C@H]1CCCNC1` [AZD7762] + CC(=O)Nc1cccc(-n2c(=O)n(C3CC3)c(=O)c3c(Nc4ccc(I)cc4F)n(C)c(=O)c(C)c32)c1 [Trametinib] (partner 0.02 µM) was tested, and the relative viability (NCI-H522; first compound 0.01 µM) was 0.666, the relative viability (NCI-H522; first compound 0.03162 µM) was 0.822 and the relative viability (NCI-H522; first compound 0.1 µM) was 0.737. The relative viability (NCI-H522; first compound 0.3162 µM) was 0.812, the relative viability (NCI-H522; first compound 1 µM) was 0.791 and the relative viability (NCI-H520; first compound 0.01 µM) was 0.713. For the same compound, the relative viability (NCI-H520; first compound 0.03162 µM) was 0.702, the relative viability (NCI-H520; first compound 0.1 µM) was 0.653 and the relative viability (NCI-H520; first compound 0.3162 µM) was 0.484. For the same compound, the relative viability (NCI-H520; first compound 1 µM) was 0.194, the relative viability (NCI-H1355; first compound 0.01 µM) was 0.406 and the relative viability (NCI-H1355; first compound 0.03162 µM) was 0.466. It also gave a relative viability (NCI-H1355; first compound 0.1 µM) of 0.368, a relative viability (NCI-H1355; first compound 0.3162 µM) of 0.441 and a relative viability (NCI-H1355; first compound 1 µM) of 0.522. For the same compound, the relative viability (NCI-H1648; first compound 0.01 µM) was 0.506, the relative viability (NCI-H1648; first compound 0.03162 µM) was 0.409 and the relative viability (NCI-H1648; first compound 0.1 µM) was 0.513. For the same compound, the relative viability (NCI-H1648; first compound 0.3162 µM) was 0.446, the relative viability (NCI-H1648; first compound 1 µM) was 0.514 and the relative viability (LCLC-103H; first compound 0.01 µM) was 0.683. The relative viability (LCLC-103H; first compound 0.03162 µM) was 0.674, the relative viability (LCLC-103H; first compound 0.1 µM) was 0.712 and the relative viability (LCLC-103H; first compound 0.3162 µM) was 0.574. The relative viability (LCLC-103H; first compound 1 µM) was 0.712.
